According to the supplement of paper PMC10307832:

Experiments:
Assay in all cases: relative viability (nuclei count vs DMSO), 5 days (fraction); higher = more cells survive
Sulindac + Trametinib = compound: CC1=C(CC(=O)O)c2cc(F)ccc2/C1=C\c1ccc([S+](C)[O-])cc1 [Sulindac] + CC(=O)Nc1cccc(-n2c(=O)n(C3CC3)c(=O)c3c(Nc4ccc(I)cc4F)n(C)c(=O)c(C)c32)c1 [Trametinib] (partner 0.02 µM)
How it was run: (§1)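 Lung cancer cell lines were seeded in 1536-well plates and dosed by pin tool the next day, with either a single drug or a fixed anchor-drug dose combined with five library-drug doses (not always all listed) spaced in √10 steps. Five days later, one step fixed the cells and stained their nuclei (final 0.05% Triton X-100, 1% formaldehyde, 1 ug/ml Hoechst), and nuclei were counted on 4× images. Relative viability is the nuclei count in treated wells divided by the count in vehicle wells, and each value is the median of duplicate plates.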

[1] = compound: CN[C@@H]1C[C@H]2O[C@@](C)([C@@H]1OC)n1c3ccccc3c3c4c(c5c6ccccc6n2c5c31)C(=O)NC4 [Staurosporine] + CS(=O)(=O)N1CCN(Cc2cc3nc(-c4cccc5[nH]ncc45)nc(N4CCOCC4)c3s2)CC1 [Pictilisib] (partner 1 µM)
How it was run: as §1

Sulindac + Crizotinib = compound: CC1=C(CC(=O)O)c2cc(F)ccc2/C1=C\c1ccc([S+](C)[O-])cc1 [Sulindac] + C[C@@H](Oc1cc(-c2cnn(C3CCNCC3)c2)cnc1N)c1c(Cl)ccc(F)c1Cl [Crizotinib] (partner 1 µM)
How it was run: as §1

Staurosporine + Olaparib = compound: CN[C@@H]1C[C@H]2O[C@@](C)([C@@H]1OC)n1c3ccccc3c3c4c(c5c6ccccc6n2c5c31)C(=O)NC4 [Staurosporine] + O=C(c1cc(Cc2n[nH]c(=O)c3ccccc23)ccc1F)N1CCN(C(=O)C2CC2)CC1 [Olaparib] (partner 8 µM)
How it was run: as §1

Row | Cell Line | relative viability (Sulindac + Trametinib; first compound 0.08 µM) | relative viability (Sulindac + Trametinib; first compound 0.253 µM) | relative viability (Sulindac + Trametinib; first compound 0.8 µM) | relative viability (Sulindac + Trametinib; first compound 2.53 µM) | relative viability (Sulindac + Trametinib; first compound 8 µM) | relative viability ([1]; first compound 0.005 µM) | relative viability ([1]; first compound 0.01581 µM) | relative viability ([1]; first compound 0.05 µM) | relative viability ([1]; first compound 0.1581 µM) | relative viability ([1]; first compound 0.5 µM) | relative viability (Sulindac + Crizotinib; first compound 0.08 µM) | relative viability (Sulindac + Crizotinib; first compound 0.253 µM) | relative viability (Sulindac + Crizotinib; first compound 0.8 µM) | relative viability (Sulindac + Crizotinib; first compound 2.53 µM) | relative viability (Sulindac + Crizotinib; first compound 8 µM) | relative viability (Staurosporine + Olaparib; first compound 0.005 µM) | relative viability (Staurosporine + Olaparib; first compound 0.01581 µM) | relative viability (Staurosporine + Olaparib; first compound 0.05 µM) | relative viability (Staurosporine + Olaparib; first compound 0.1581 µM) | relative viability (Staurosporine + Olaparib; first compound 0.5 µM)
1 | NCI-H358 | 0.132 | 0.132 | 0.128 | 0.114 | 0.14 | 0.317 | 0.261 | 0.162 | 0.141 | 0.139 | 0.475 | 0.52 | 0.596 | 0.497 | 0.746 | 0.519 | 0.403 | 0.0954 | 0.0798 | 0.058
2 | NCI-H1755 | 0.886 | 0.751 | 0.775 | 0.812 | 0.89 | 0.135 | 0.139 | 0.155 | 0.138 | 0.154 | 1 | 0.886 | 0.743 | 0.981 | 0.935 | 0.731 | 0.421 | 0.25 | 0.236 | 0.234
3 | A-427 | 0.685 | 0.709 | 0.732 | 0.673 | 0.848 | 0.524 | 0.335 | 0.329 | 0.103 | 0.106 | 0.892 | 0.888 | 0.881 | 0.894 | 0.896 | 0.694 | 0.482 | 0.284 | 0.189 | 0.139
4 | PC-14 | 0.908 | 0.772 | 0.745 | 0.779 | 1.01 | 0.237 | 0.12 | 0.0413 | 0.0584 | 0.0397 | 0.942 | 0.891 | 0.726 | 0.911 | 1.02 | 0.147 | 0.0797 | 0.042 | 0.0556 | 0.043
5 | LCLC-97TM1 | 0.25 | 0.228 | 0.213 | 0.171 | 0.214 | 0.197 | 0.0972 | 0.152 | 0.119 | 0.153 | 0.435 | 0.373 | 0.319 | – | 0.418 | 0.42 | 0.12 | 0.194 | 0.236 | 0.191
6 | BEN | 0.975 | 1.03 | 0.934 | 1.02 | 1.13 | 0.836 | 0.612 | 0.474 | 0.251 | 0.204 | 0.994 | 0.903 | 0.648 | 0.984 | 1.13 | 0.976 | 0.799 | 0.641 | 0.514 | 0.362
7 | NCI-H2085 | 0.513 | 0.569 | 0.576 | 0.435 | 0.384 | 0.369 | 0.261 | 0.282 | 0.351 | 0.226 | 0.735 | 0.944 | 0.779 | 0.772 | 0.953 | 0.694 | 0.471 | 0.556 | 0.398 | 0.344
8 | LC-2-ad | 1.02 | 1.01 | 0.769 | 0.928 | 0.915 | 0.591 | 0.159 | 0.143 | 0.0807 | 0.0527 | 0.423 | 0.516 | 0.404 | 0.46 | 0.466 | 0.684 | 0.546 | 0.483 | 0.154 | 0.0646
9 | NCI-H661 | 0.635 | 0.608 | 0.487 | 0.669 | 0.654 | 0.345 | 0.265 | 0.277 | 0.245 | 0.271 | 0.973 | 1.03 | 1.03 | 1.17 | 0.973 | 0.65 | 0.556 | 0.521 | 0.333 | 0.175
10 | NCI-H1792 | 0.425 | 0.393 | – | 0.512 | 0.513 | 0.25 | 0.0859 | 0.0905 | 0.106 | – | 1 | 1 | – | 0.944 | 1.16 | 0.147 | 0.0705 | 0.0822 | 0.097 | 0.0652
11 | EPLC-272H | 0.195 | – | 0.266 | 0.245 | 0.279 | 0.333 | 0.141 | 0.176 | 0.1 | 0.0694 | 0.932 | – | 0.948 | 0.551 | 0.977 | 0.41 | 0.148 | 0.139 | 0.0846 | 0.0704
12 | NCI-H1437 | 0.644 | 0.568 | 0.461 | 0.515 | 0.525 | 0.449 | 0.25 | 0.249 | 0.108 | 0.0658 | 1.15 | 0.992 | 0.58 | 0.978 | 1.04 | 0.506 | 0.456 | 0.401 | 0.168 | 0.106
13 | EKVX | 0.299 | 0.34 | 0.292 | 0.335 | 0.333 | 0.403 | 0.218 | 0.184 | 0.163 | 0.121 | 1.17 | 0.871 | 0.692 | 0.907 | 0.947 | 0.562 | 0.392 | 0.272 | 0.216 | 0.13
